Data from PubChem BioAssay AID1963427 (Molecular Pharmacology Branch, DTP, NCI, 2024).

Tested on: 317291-083-R-J1-PDC complex spheroid growth
Assay: Anticancer human tumor 317291-083-R-J1-PDC patient-derived soft tissue sarcoma cell line growth inhibition [Asc]
Conditions: for IC50: curve of first compound; for viability, T/C: stronger effect = lower value
Method: Multicellular complex tumor spheroid response to apoptosis pathway targeting inhibitors Alrizomadlin, Pelcitoclax, and Dasminapant in combination with a variety of drugs and investigational agents in selected tumor cell lines
The MDM2 inhibitor alrizomadlin, the Bcl-2/Bcl-xL inhibitor pelcitoclax, and the IAPs inhibitor dasminapant were evaluated both individually and in combination with standard of care and investigational anticancer small molecules within a complex spheroid model of solid tumors. . Complex spheroids include a stromal component modeled by human endothelial cells (HUVEC) and fibroblasts modeled by human mesenchymal stem cells (MSCs). The concentration ranges selected for each drug and investigational agent were based upon clinically achievable concentrations if the clinical Cmax of the agent was known.
Compounds. The drugs and investigational agents: alrizomadlin (APG-115; NSC831270), pelcitoclax (APG-1252; NSC835773), dasminapant (APG-1387;NSC834197), TAK-243 (NSC785004), copanlisib (NSC809693), olaparib (NSC753686), talazoparib (NSC767125), cobimetinib (NSC 768068), eltanexor (KPT-8602, NSC 794443), abemaciclib (NSC 768073), sotorasib (NSC818433), adagrasib (NSC 831453), MRTX-1133 (NSC 836407), Iadademestat (ORY1001, NSC 806812), and RMC-4630 (NSC839698), were obtained from the NCI Developmental Therapeutics Program Chemical Repository. The FDA-approved anticancer drug set is available from the Developmental Therapeutics Program at https://dtp.cancer.gov/organization/dscb/obtaining/available plates.htm. […] The stock solutions were prepared in dimethyl sulfoxide (DMSO, Sigma-Aldrich, St. Louis, MO, cat. D2650) at 800-fold the tested concentration and stored at -70 degrees C prior to their use. All drugs and investigational agents were tested over a range starting from a high concentration at or near the clinical Cmax and decreasing in half-log increments. If the clinical Cmax for an agent had not been determined, the highest concentration tested was 10 microM.
The patient-derived cancer (PDC) cell lines include five colon adenocarcinomas: 186277-243-T-J2-PDC, 616215-338-R-J1-PDC, 439559-082-T-J2-PDC, 463943-066-T-J2-PDC, and 519858-162-T-J1-PDC; three pancreatic carcinomas: 323965-272-R-J2-PDC, 521955-158-R6-J3-PDC, and 521955-158-R2-J5-PDC; two uterine sarcomas: 327498-152-R-J2-PDC and 993429-296-R-J1-PDC; two rhabdomyosarcomas: 755483-174-R-J1-PDC and 772245-204-R-J1-PDC; two soft tissue sarcomas: 126254-015-R-J1-PDC and 494315-158-R-J1-PDC; two malignant fibrous histiocytomas: 317291-083-R-J1-PDC and 596521-263-R-J1-PDC; two breast carcinomas: 171881-019-R-J1-PDC and 885512-296-R-J2-PDC; and one ovarian carcinoma: 6556581-035-R-J-PDC were obtained from the NCI PDMR, (https://pdmr.cancer.gov). The established cell lines HSSY-2 synovial sarcoma (RRID:CVCL 8719), SYO-1 synovial sarcoma (RRID:CVCL_7146), MPNST malignant peripheral neural sheath tumor were obtained from the Sloan Kettering Institute. The following established cell lines were purchased from the American Type Culture Collection (ATCC, Manassas, VA), Sor the received from the NCI repository:, PANC-1 pancreatic carcinoma (CRL-1469, RRID:CVCL_0480), OVCAR-5 ovarian carcinoma (RRID:CVCL_1628), OVCAR-8 ovarian carcinoma (RRID:CVCL_1629), , MCF-7 breast carcinoma (CRL-12584, RRID:CVCL_0031), MDA-MB-231 breast carcinoma (CRL-12532, RRID:CVCL_0062), NCI-H1876 small cell lung carcinoma (CRL-5902, RRID:CVCL_1503), NCI-H510A small cell lung carcinoma (HTB-184, RRID:CVCL_1565), NCI-H1417 (CRL-5869, RRID:CVCL_1469), and NCI-H196 small cell lung carcinoma (CRL-5823, RRID:CVCL_1509). Dr. Peter Houghton (Greehey Children's Cancer Research Institute, University of Texas Health Science Center, San Antonio, TX) provided Rh-18 rhabdomyosarcoma (RRID:CVCL_1659). Pooled donor human umbilical vein endothelial cells (HUVEC, Lonza, cat. CC-2519) and human mesenchymal stem cells (hMSC, Lonza, cat. PT-2501) were purchased from Lonza (Walkersville, MD).
Cell Culture. […]
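Note: compound exposure lasted seven days after spheroids formed for three days.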
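Throughout, for viability, T/C: 100% = DMSO vehicle control wells.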

O=C(c1ccc(F)c(F)c1Nc1ccc(I)cc1F)N1CC(O)([C@@H]2CCCCN2)C1 + Cc1c(S(C)(=O)=O)c(-c2cc(F)cc(N3CCN(c4ccc(NS(=O)(=O)c5ccc(NC(CCN6CCC(C(=O)OCCCP(=O)(O)O)CC6)CSc6ccccc6)c(S(=O)(=O)C(F)(F)F)c5)cc4)CC3)c2)c(-c2ccc(Cl)cc2)n1C(C)C was tested. Which IC50 (second compound 0.0316 µM) did it give?
Its IC50 is 419 nM.

And the IC50 (second compound 0.1 µM)?
Its IC50 is 344 nM.

What about the IC50 (second compound 0.316 µM) of the same molecule?
The IC50 was 291 nM.

And the IC50 (second compound 1 µM)?
Its IC50 is 443 nM.

And the IC50 (second compound 3.16 µM)?
The IC50 was 322 nM.

And the IC50 (second compound 10 µM)?
The IC50 was 319 nM.

What about the viability, T/C (second compound 0.0316 µM, first compound 0.00316 µM) of the same molecule?
Its viability, T/C is 98.2%.

What about the viability, T/C (second compound 0.0316 µM, first compound 0.01 µM) of the same molecule?
Its viability, T/C is 96.5%.

What about the viability, T/C (second compound 0.0316 µM, first compound 0.0316 µM) of the same molecule?
The viability, T/C was 99.2%.

What about the viability, T/C (second compound 0.0316 µM, first compound 0.1 µM) of the same molecule?
Its viability, T/C is 97.7%.

And the viability, T/C (second compound 0.0316 µM, first compound 0.316 µM)?
Its viability, T/C is 60.5%.

And the viability, T/C (second compound 0.0316 µM, first compound 1 µM)?
The viability, T/C was 17.5%.

What about the viability, T/C (second compound 0.1 µM, first compound 0.00316 µM) of the same molecule?
Its viability, T/C is 85.2%.

What about the viability, T/C (second compound 0.1 µM, first compound 0.01 µM) of the same molecule?
Its viability, T/C is 81.6%.

And the viability, T/C (second compound 0.1 µM, first compound 0.0316 µM)?
Its viability, T/C is 72.2%.

And the viability, T/C (second compound 0.1 µM, first compound 0.1 µM)?
The viability, T/C was 111%.

And the viability, T/C (second compound 0.1 µM, first compound 0.316 µM)?
The viability, T/C was 52.9%.

And the viability, T/C (second compound 0.1 µM, first compound 1 µM)?
Its viability, T/C is 13.2%.

And the viability, T/C (second compound 0.316 µM, first compound 0.00316 µM)?
Its viability, T/C is 85%.

And the viability, T/C (second compound 0.316 µM, first compound 0.01 µM)?
The viability, T/C was 76.7%.

And the viability, T/C (second compound 0.316 µM, first compound 0.0316 µM)?
The viability, T/C was 75.3%.

What about the viability, T/C (second compound 0.316 µM, first compound 0.1 µM) of the same molecule?
Its viability, T/C is 103%.

What about the viability, T/C (second compound 0.316 µM, first compound 0.316 µM) of the same molecule?
The viability, T/C was 47.4%.

What about the viability, T/C (second compound 0.316 µM, first compound 1 µM) of the same molecule?
The viability, T/C was 10.6%.

What about the viability, T/C (second compound 1 µM, first compound 0.00316 µM) of the same molecule?
Its viability, T/C is 76.7%.

And the viability, T/C (second compound 1 µM, first compound 0.01 µM)?
Its viability, T/C is 85.5%.

And the viability, T/C (second compound 1 µM, first compound 0.0316 µM)?
The viability, T/C was 72.6%.

What about the viability, T/C (second compound 1 µM, first compound 0.1 µM) of the same molecule?
Its viability, T/C is 73%.

What about the viability, T/C (second compound 1 µM, first compound 0.316 µM) of the same molecule?
Its viability, T/C is 67.3%.

What about the viability, T/C (second compound 1 µM, first compound 1 µM) of the same molecule?
The viability, T/C was 11.2%.

What about the viability, T/C (second compound 3.16 µM, first compound 0.00316 µM) of the same molecule?
Its viability, T/C is 74.9%.

What about the viability, T/C (second compound 3.16 µM, first compound 0.01 µM) of the same molecule?
Its viability, T/C is 72.7%.

And the viability, T/C (second compound 3.16 µM, first compound 0.0316 µM)?
The viability, T/C was 73%.

And the viability, T/C (second compound 3.16 µM, first compound 0.1 µM)?
Its viability, T/C is 79.4%.

What about the viability, T/C (second compound 3.16 µM, first compound 0.316 µM) of the same molecule?
Its viability, T/C is 50.7%.

What about the viability, T/C (second compound 3.16 µM, first compound 1 µM) of the same molecule?
The viability, T/C was 9.52%.

And the viability, T/C (second compound 10 µM, first compound 0.00316 µM)?
The viability, T/C was 76.9%.

And the viability, T/C (second compound 10 µM, first compound 0.01 µM)?
Its viability, T/C is 92%.

What about the viability, T/C (second compound 10 µM, first compound 0.0316 µM) of the same molecule?
The viability, T/C was 73%.

And the viability, T/C (second compound 10 µM, first compound 0.1 µM)?
The viability, T/C was 97.9%.

And the viability, T/C (second compound 10 µM, first compound 0.316 µM)?
The viability, T/C was 50.2%.

And the viability, T/C (second compound 10 µM, first compound 1 µM)?
Its viability, T/C is 16.8%.
